According to the supplement of paper PMC10307832:

Tests used:
Experiment in all cases: relative viability (nuclei count vs DMSO), 5 days (fraction); higher = more cells survive
[1] = compound: C1CC(C1)(C(=O)O)C(=O)O.[NH2-].[NH2-].[Pt+2] [Carboplatin] + CC(=O)Nc1cccc(-n2c(=O)n(C3CC3)c(=O)c3c(Nc4ccc(I)cc4F)n(C)c(=O)c(C)c32)c1 [Trametinib] (partner 0.02 µM)
Method in brief: (§1)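 Lung cancer cell lines were seeded in 1536-well plates and dosed by pin tool the next day, with either a single drug or a fixed anchor-drug dose combined with five library-drug doses (not always all listed) spaced in √10 steps. Five days later, one step fixed the cells and stained their nuclei (final 0.05% Triton X-100, 1% formaldehyde, 1 ug/ml Hoechst), and nuclei were counted on 4× images. Relative viability is the nuclei count in treated wells divided by the count in vehicle wells, and each value is the median of duplicate plates.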

[2] = compound: C1CC(C1)(C(=O)O)C(=O)O.[NH2-].[NH2-].[Pt+2] [Carboplatin] + C[C@@H](Oc1cc(-c2cnn(C3CCNCC3)c2)cnc1N)c1c(Cl)ccc(F)c1Cl [Crizotinib] (partner 1 µM)
Method in brief: as §1

[3] = compound: CC[C@H](C)N1C=C(C2=C(C=C(C=C21)C3=CN=C(C=C3)N4CCNCC4)C(=O)NCC5=C(C=C(NC5=O)C)C)C [GSK126] + CS(=O)(=O)N1CCN(Cc2cc3nc(-c4cccc5[nH]ncc45)nc(N4CCOCC4)c3s2)CC1 [Pictilisib] (partner 1 µM)
Method in brief: as §1

[4] = compound: CC[C@H](C)N1C=C(C2=C(C=C(C=C21)C3=CN=C(C=C3)N4CCNCC4)C(=O)NCC5=C(C=C(NC5=O)C)C)C [GSK126] + O=C(c1cc(Cc2n[nH]c(=O)c3ccccc23)ccc1F)N1CCN(C(=O)C2CC2)CC1 [Olaparib] (partner 8 µM)
Method in brief: as §1

Cell Line | relative viability ([1]; first compound 0.08 µM) | relative viability ([1]; first compound 0.253 µM) | relative viability ([1]; first compound 0.8 µM) | relative viability ([1]; first compound 2.53 µM) | relative viability ([1]; first compound 8 µM) | relative viability ([2]; first compound 0.08 µM) | relative viability ([2]; first compound 0.253 µM) | relative viability ([2]; first compound 0.8 µM) | relative viability ([2]; first compound 2.53 µM) | relative viability ([2]; first compound 8 µM) | relative viability ([3]; first compound 0.08 µM) | relative viability ([3]; first compound 0.253 µM) | relative viability ([3]; first compound 0.8 µM) | relative viability ([3]; first compound 2.53 µM) | relative viability ([3]; first compound 8 µM) | relative viability ([4]; first compound 0.08 µM) | relative viability ([4]; first compound 0.253 µM) | relative viability ([4]; first compound 0.8 µM) | relative viability ([4]; first compound 2.53 µM) | relative viability ([4]; first compound 8 µM)
LU99A | 0.602 | 0.634 | 0.537 | 0.55 | 0.418 | 0.62 | 0.665 | 0.556 | 0.464 | 0.422 | 0.33 | 0.32 | 0.284 | 0.342 | 0.362 | 0.245 | 0.258 | 0.266 | 0.243 | 0.232
NCI-H1299 | – | – | – | – | – | 0.932 | 0.91 | 0.88 | 0.885 | 0.835 | 0.877 | 0.693 | 0.74 | 1.02 | 0.576 | 1 | 0.93 | 0.922 | 0.921 | 0.976
NCI-H1355 | 0.45 | 0.438 | 0.474 | 0.403 | 0.367 | 1.16 | 1.18 | 1.02 | 1.02 | 1.02 | 0.476 | 0.531 | 0.447 | 0.499 | 0.447 | 0.809 | 0.754 | 0.772 | 0.752 | 0.774
HCC-15 | 0.371 | 0.399 | 0.381 | 0.391 | 0.371 | 0.914 | 0.875 | 0.775 | 0.688 | 0.643 | 0.767 | 0.709 | 0.698 | 0.673 | 0.676 | 0.749 | 0.776 | 0.686 | 0.608 | 0.745
LXF-289 | 0.671 | 0.717 | 0.674 | 0.712 | 0.656 | 0.821 | 0.839 | 0.708 | 0.796 | 0.764 | 0.835 | 0.791 | 0.732 | 0.769 | 0.8 | 1.12 | 1.11 | 1.05 | 1.01 | 1.02
201T | 0.833 | 0.693 | 0.699 | 0.714 | 0.694 | 1.03 | 1.06 | 1.02 | 1.06 | 0.994 | 0.686 | 0.8 | 0.738 | 0.691 | 0.728 | 0.867 | 0.845 | 0.831 | 0.906 | 0.886
HOP-62 | 0.393 | 0.359 | 0.385 | 0.393 | 0.363 | 1.04 | 1 | 0.925 | 0.88 | 0.534 | 0.894 | 0.758 | 0.64 | 0.86 | 0.785 | 0.447 | 0.506 | 0.414 | 0.455 | 0.428
NCI-H1703 | – | – | – | – | – | 0.835 | 0.574 | 0.65 | 0.971 | 0.636 | 0.247 | 0.263 | 0.235 | 0.262 | 0.231 | 0.576 | 0.351 | 0.694 | 0.455 | 0.492
NCI-H1975 | 0.329 | 0.391 | 0.33 | 0.371 | 0.388 | 0.955 | 0.943 | 0.919 | 0.969 | 0.911 | 0.328 | 0.301 | 0.321 | 0.291 | 0.274 | 0.785 | 0.789 | 0.721 | 0.809 | 0.762
NCI-H2023 | 0.599 | 0.633 | 0.542 | 0.343 | 0.163 | 0.633 | 0.604 | 0.566 | 0.419 | 0.144 | 0.26 | 0.253 | 0.247 | 0.306 | 0.256 | 0.489 | 0.496 | 0.446 | 0.467 | 0.382
EBC-1 | – | – | – | – | – | 0.186 | 0.202 | 0.175 | 0.182 | 0.2 | 0.42 | 0.321 | 0.41 | 0.321 | 0.25 | 0.743 | 0.711 | 0.702 | 0.684 | 0.615
COR-L23 | 0.619 | 0.645 | 0.559 | 0.509 | 0.229 | 0.561 | 0.645 | 0.606 | 0.48 | 0.28 | 0.946 | 0.735 | 0.817 | 0.839 | 0.768 | 0.422 | 0.33 | 0.33 | 0.354 | 0.387
NCI-H1793 | 0.39 | 0.455 | 0.48 | 0.386 | 0.431 | – | – | – | – | – | 0.224 | 0.37 | 0.36 | 0.502 | 0.343 | 0.931 | 0.8 | 0.732 | 1.24 | 0.989
A549 | – | – | – | – | – | 0.963 | 0.789 | 0.697 | 0.598 | 0.294 | 0.506 | 0.479 | 0.485 | 0.46 | 0.53 | 0.361 | 0.297 | 0.336 | 0.333 | 0.368
CAL-12T | 0.385 | 0.352 | 0.299 | 0.33 | 0.365 | 0.856 | 0.7 | 0.738 | 0.66 | 0.707 | 0.466 | 0.499 | 0.357 | 0.596 | 0.343 | 0.809 | 0.713 | 0.758 | 0.829 | 0.643
NCI-H1993 | 0.564 | 0.51 | 0.561 | 0.404 | 0.497 | 0.958 | 0.909 | 0.892 | 0.775 | 0.723 | 0.841 | 0.795 | 0.828 | 0.902 | 0.782 | 1.21 | 1.02 | 1 | 1.06 | 0.893
ChaGo-K-1 | 0.857 | 0.917 | 0.831 | 0.717 | 0.546 | 1.14 | 1.09 | 0.943 | 0.647 | 0.579 | 0.831 | 0.656 | 0.746 | 0.722 | 0.649 | 0.419 | 0.419 | 0.432 | 0.5 | 0.431
